Assays:
[1] = tested on: B16F0 melanoma tumour; test: Biodistribution in B16 melanoma bearing mice; format: in vivo, C57BL/6J mice; conditions: B16 melanoma bearing mice
Outline: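 B16F0 tumours in C57BL/6J mice (day 11) and A375 xenografts in BALB/c nude mice (day 25), subcutaneous left flank. Radiotracer given i.v. by tail vein (18F 0.5–1.5 MBq; 123I 0.37–0.74 MBq); n=5 per time point, 15 min–6 h (18F) or 1–72 h (123I). Organs γ-counted as % ID/g.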

[2] = HPLC metabolite analysis in plasma, tumour, eye and urine; format: in vivo; conditions: for Percentage Unchanged Tracer: HPLC

Question: With `CCN(CC)CCNC(=O)c1ccc(F)nc1` [[^18F]MEL2, 6-Fluoro-N-[2-(diethylamino)ethyl]nicotinamide] as the compound, how does the “uptake BLOOD” value ([1]; 15 min) read?
Answer: Its value is 2.048 % ID/g.

Question: And the “uptake BONE” value ([1]; 15 min)?
Answer: Its value is 3.493 % ID/g.

Question: What about the “uptake BRAIN” value ([1]; 15 min) of the same compound?
Answer: Its value is 2.471 % ID/g.

Question: And the “uptake EYES” value ([1]; 15 min)?
Answer: The value was 14.678 % ID/g.

Question: And the “uptake GIT” value ([1]; 15 min)?
Answer: The value was 5.421 % ID/g.

Question: And the “uptake HEART” value ([1]; 15 min)?
Answer: Its value is 3.153 % ID/g.

Question: And the “uptake KIDNEY” value ([1]; 15 min)?
Answer: Its value is 14.117 % ID/g.

Question: What about the “uptake LIVER” value ([1]; 15 min) of the same compound?
Answer: Its value is 10.148 % ID/g.

Question: And the “uptake LUNGS” value ([1]; 15 min)?
Answer: Its value is 5.616 % ID/g.

Question: What about the “uptake MUSCLE” value ([1]; 15 min) of the same compound?
Answer: The value was 3.796 % ID/g.

Question: And the “uptake SKIN” value ([1]; 15 min)?
Answer: Its value is 2.214 % ID/g.

Question: What about the “uptake SPLEEN” value ([1]; 15 min) of the same compound?
Answer: Its value is 8.585 % ID/g.

Question: What about the “uptake STOMACH” value ([1]; 15 min) of the same compound?
Answer: Its value is 9.344 % ID/g.

Question: What about the “uptake THYROID” value ([1]; 15 min) of the same compound?
Answer: The value was 5.515 % ID/g.

Question: And the “uptake TUMOUR” value ([1]; 15 min)?
Answer: The value was 6.970 % ID/g.

Question: And the “uptake BLOOD” value ([1]; 30 min)?
Answer: The value was 1.218 % ID/g.

Question: What about the “uptake BONE” value ([1]; 30 min) of the same compound?
Answer: The value was 2.078 % ID/g.

Question: What about the “uptake BRAIN” value ([1]; 30 min) of the same compound?
Answer: The value was 1.997 % ID/g.

Question: What about the “uptake EYES” value ([1]; 30 min) of the same compound?
Answer: The value was 15.976 % ID/g.

Question: What about the “uptake GIT” value ([1]; 30 min) of the same compound?
Answer: The value was 3.855 % ID/g.

Question: And the “uptake HEART” value ([1]; 30 min)?
Answer: The value was 1.902 % ID/g.

Question: What about the “uptake KIDNEY” value ([1]; 30 min) of the same compound?
Answer: The value was 9.595 % ID/g.

Question: What about the “uptake LIVER” value ([1]; 30 min) of the same compound?
Answer: The value was 5.825 % ID/g.

Question: And the “uptake LUNGS” value ([1]; 30 min)?
Answer: Its value is 2.922 % ID/g.

Question: What about the “uptake MUSCLE” value ([1]; 30 min) of the same compound?
Answer: The value was 2.240 % ID/g.

Question: What about the “uptake SKIN” value ([1]; 30 min) of the same compound?
Answer: The value was 1.473 % ID/g.

Question: And the “uptake SPLEEN” value ([1]; 30 min)?
Answer: The value was 7.225 % ID/g.

Question: And the “uptake STOMACH” value ([1]; 30 min)?
Answer: The value was 6.639 % ID/g.

Question: And the “uptake THYROID” value ([1]; 30 min)?
Answer: Its value is 2.537 % ID/g.

Question: And the “uptake TUMOUR” value ([1]; 30 min)?
Answer: The value was 8.582 % ID/g.

Question: And the “uptake BLOOD” value ([1]; 1 h)?
Answer: The value was 0.619 % ID/g.

Question: And the “uptake BONE” value ([1]; 1 h)?
Answer: Its value is 1.368 % ID/g.

Question: And the “uptake BRAIN” value ([1]; 1 h)?
Answer: Its value is 1.096 % ID/g.

Question: What about the “uptake EYES” value ([1]; 1 h) of the same compound?
Answer: The value was 18.808 % ID/g.

Question: And the “uptake GIT” value ([1]; 1 h)?
Answer: The value was 2.102 % ID/g.

Question: And the “uptake HEART” value ([1]; 1 h)?
Answer: The value was 0.977 % ID/g.

Question: And the “uptake KIDNEY” value ([1]; 1 h)?
Answer: The value was 3.446 % ID/g.

Question: What about the “uptake LIVER” value ([1]; 1 h) of the same compound?
Answer: The value was 2.813 % ID/g.

Question: What about the “uptake LUNGS” value ([1]; 1 h) of the same compound?
Answer: Its value is 1.632 % ID/g.

Question: What about the “uptake MUSCLE” value ([1]; 1 h) of the same compound?
Answer: The value was 1.248 % ID/g.

Question: What about the “uptake SKIN” value ([1]; 1 h) of the same compound?
Answer: Its value is 0.766 % ID/g.

Question: And the “uptake SPLEEN” value ([1]; 1 h)?
Answer: The value was 2.393 % ID/g.

Question: And the “uptake STOMACH” value ([1]; 1 h)?
Answer: Its value is 3.370 % ID/g.

Question: And the “uptake THYROID” value ([1]; 1 h)?
Answer: The value was 3.327 % ID/g.

Question: What about the “uptake TUMOUR” value ([1]; 1 h) of the same compound?
Answer: Its value is 8.376 % ID/g.

Question: What about the “uptake BLOOD” value ([1]; 2 h) of the same compound?
Answer: The value was 0.147 % ID/g.

Question: And the “uptake BONE” value ([1]; 2 h)?
Answer: The value was 0.578 % ID/g.

Question: What about the “uptake BRAIN” value ([1]; 2 h) of the same compound?
Answer: Its value is 0.270 % ID/g.

Question: And the “uptake EYES” value ([1]; 2 h)?
Answer: Its value is 17.281 % ID/g.

Question: And the “uptake GIT” value ([1]; 2 h)?
Answer: Its value is 0.708 % ID/g.

Question: What about the “uptake HEART” value ([1]; 2 h) of the same compound?
Answer: Its value is 0.246 % ID/g.

Question: What about the “uptake KIDNEY” value ([1]; 2 h) of the same compound?
Answer: The value was 0.676 % ID/g.

Question: What about the “uptake LIVER” value ([1]; 2 h) of the same compound?
Answer: Its value is 0.693 % ID/g.

Question: What about the “uptake LUNGS” value ([1]; 2 h) of the same compound?
Answer: Its value is 0.386 % ID/g.

Question: And the “uptake MUSCLE” value ([1]; 2 h)?
Answer: The value was 0.276 % ID/g.

Question: And the “uptake SKIN” value ([1]; 2 h)?
Answer: Its value is 0.356 % ID/g.

Question: What about the “uptake SPLEEN” value ([1]; 2 h) of the same compound?
Answer: The value was 1.848 % ID/g.

Question: And the “uptake STOMACH” value ([1]; 2 h)?
Answer: Its value is 1.472 % ID/g.

Question: What about the “uptake THYROID” value ([1]; 2 h) of the same compound?
Answer: Its value is 0.609 % ID/g.

Question: And the “uptake TUMOUR” value ([1]; 2 h)?
Answer: The value was 9.416 % ID/g.

Question: What about the “uptake BLOOD” value ([1]; 3 h) of the same compound?
Answer: The value was 0.111 % ID/g.

Question: What about the “uptake BONE” value ([1]; 3 h) of the same compound?
Answer: The value was 0.624 % ID/g.

Question: And the “uptake BRAIN” value ([1]; 3 h)?
Answer: Its value is 0.150 % ID/g.

Question: And the “uptake EYES” value ([1]; 3 h)?
Answer: Its value is 17.276 % ID/g.

Question: What about the “uptake GIT” value ([1]; 3 h) of the same compound?
Answer: The value was 0.541 % ID/g.

Question: And the “uptake HEART” value ([1]; 3 h)?
Answer: Its value is 0.166 % ID/g.

Question: What about the “uptake KIDNEY” value ([1]; 3 h) of the same compound?
Answer: Its value is 0.394 % ID/g.

Question: And the “uptake LIVER” value ([1]; 3 h)?
Answer: Its value is 0.491 % ID/g.

Question: And the “uptake LUNGS” value ([1]; 3 h)?
Answer: Its value is 0.253 % ID/g.

Question: What about the “uptake MUSCLE” value ([1]; 3 h) of the same compound?
Answer: Its value is 0.201 % ID/g.

Question: What about the “uptake SKIN” value ([1]; 3 h) of the same compound?
Answer: The value was 0.172 % ID/g.

Question: And the “uptake SPLEEN” value ([1]; 3 h)?
Answer: The value was 0.890 % ID/g.

Question: And the “uptake STOMACH” value ([1]; 3 h)?
Answer: Its value is 0.828 % ID/g.

Question: What about the “uptake THYROID” value ([1]; 3 h) of the same compound?
Answer: The value was 0.488 % ID/g.

Question: What about the “uptake TUMOUR” value ([1]; 3 h) of the same compound?
Answer: Its value is 7.753 % ID/g.

Question: And the “uptake BLOOD” value ([1]; 6 h)?
Answer: Its value is 0.020 % ID/g.

Question: What about the “uptake BONE” value ([1]; 6 h) of the same compound?
Answer: Its value is 0.515 % ID/g.

Question: And the “uptake BRAIN” value ([1]; 6 h)?
Answer: The value was 0.039 % ID/g.

Question: What about the “uptake EYES” value ([1]; 6 h) of the same compound?
Answer: The value was 15.591 % ID/g.

Question: What about the “uptake GIT” value ([1]; 6 h) of the same compound?
Answer: Its value is 0.135 % ID/g.

Question: What about the “uptake HEART” value ([1]; 6 h) of the same compound?
Answer: The value was 0.054 % ID/g.

Question: What about the “uptake KIDNEY” value ([1]; 6 h) of the same compound?
Answer: Its value is 0.075 % ID/g.

Question: What about the “uptake LIVER” value ([1]; 6 h) of the same compound?
Answer: Its value is 0.123 % ID/g.

Question: What about the “uptake LUNGS” value ([1]; 6 h) of the same compound?
Answer: The value was 0.066 % ID/g.

Question: And the “uptake MUSCLE” value ([1]; 6 h)?
Answer: Its value is 0.032 % ID/g.

Question: And the “uptake SKIN” value ([1]; 6 h)?
Answer: The value was 0.041 % ID/g.

Question: What about the “uptake SPLEEN” value ([1]; 6 h) of the same compound?
Answer: Its value is 0.470 % ID/g.

Question: And the “uptake STOMACH” value ([1]; 6 h)?
Answer: The value was 0.193 % ID/g.

Question: And the “uptake THYROID” value ([1]; 6 h)?
Answer: Its value is 0.168 % ID/g.

Question: What about the “uptake TUMOUR” value ([1]; 6 h) of the same compound?
Answer: Its value is 7.747 % ID/g.

Question: And the “uptake in melanin containing tissue (tumour and eyes)” value ([1]; six hour period)?
Answer: The value was “high uptake”.

Question: And the “washout in all other tissue” value ([1]; six hour period)?
Answer: Its value is “rapid washout”.

Question: What about the “Percentage Unchanged Tracer” value ([2]; Eye, 15 minutes) of the same compound?
Answer: The value was 100%.

Question: And the “Percentage Unchanged Tracer” value ([2]; Eye, 60 minutes)?
Answer: The value was 96%.

Question: What about the “Percentage Unchanged Tracer” value ([2]; Eye, 120 minutes) of the same compound?
Answer: Its value is 99%.

Question: And the “form of activity taken up in the tumour and eye” value ([2]; HPLC analysis at various time points)?
Answer: Its value is “unchanged [^18F]MEL2 and not metabolites”.

Question: And the “form excreted in urine” value ([2]; HPLC analysis, all time points studied)?
Answer: Its value is “excreted predominately as the unchanged radiotracer”.

Question: What about the “Percentage Unchanged Tracer” value ([2]; Plasma, 15 minutes) of the same compound?
Answer: The value was 85%.

Question: And the “Percentage Unchanged Tracer” value ([2]; Plasma, 60 minutes)?
Answer: Its value is 79%.

Question: What about the “Percentage Unchanged Tracer” value ([2]; Plasma, 120 minutes) of the same compound?
Answer: The value was 63%.

Question: And the “Percentage Unchanged Tracer” value ([2]; Tumour, 15 minutes)?
Answer: Its value is 100%.

Question: What about the “Percentage Unchanged Tracer” value ([2]; Tumour, 60 minutes) of the same compound?
Answer: The value was 100%.

Question: And the “Percentage Unchanged Tracer” value ([2]; Tumour, 120 minutes)?
Answer: The value was 98%.

Question: And the “Percentage Unchanged Tracer” value ([2]; Urine, 60 minutes)?
Answer: The value was 90%.

Question: What about the “Percentage Unchanged Tracer” value ([2]; Urine, 120 minutes) of the same compound?
Answer: The value was 87%.
